Target: T1, cholesteryl ester transfer protein (CETP) (Homo sapiens, UniProt P11597)
T1 construct: the source of CETP was human lipoprotein-deprived serum (LPDS); from tissue; host or cells: human lipoprotein-deprived serum (LPDS)
T1 sequence (P11597 18-493): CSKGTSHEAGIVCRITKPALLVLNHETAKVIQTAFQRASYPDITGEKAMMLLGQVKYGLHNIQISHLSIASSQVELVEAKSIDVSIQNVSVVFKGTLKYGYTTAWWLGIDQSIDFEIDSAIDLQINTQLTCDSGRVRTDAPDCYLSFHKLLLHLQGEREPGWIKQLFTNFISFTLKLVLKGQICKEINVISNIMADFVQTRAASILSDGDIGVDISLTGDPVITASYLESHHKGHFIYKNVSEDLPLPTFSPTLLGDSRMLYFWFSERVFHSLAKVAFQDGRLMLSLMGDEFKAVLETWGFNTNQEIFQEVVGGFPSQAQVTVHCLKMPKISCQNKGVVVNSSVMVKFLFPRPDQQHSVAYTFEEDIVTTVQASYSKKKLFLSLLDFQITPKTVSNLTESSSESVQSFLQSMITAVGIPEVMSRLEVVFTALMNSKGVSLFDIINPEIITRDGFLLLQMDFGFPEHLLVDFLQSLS
Experiment: CETP inhibition SPA assay in the presence of plasma (CETP source: human lipoprotein-deprived serum)
Assay type: biochemical
Settings: CETP source human lipoprotein-deprived serum (LPDS), radiolabeled cholesteryl ester transfer from HDL donor to biotin-labeled LDL acceptor
Description: Activity of CETP inhibitors was determined using a buffer assay system. Partially purified CETP transferred radiolabeled cholesteryl ester from HDL donor particles to biotin-labeled LDL acceptor particles. The reaction was stopped by addition of streptavidin-coupled scintillation proximity assay (SPA) beads. These beads captured the biotinylated acceptor particles and transferred radioactivity was measured. The assay system was purchased and performed according to manufacturer's recommendations (Amersham Biosciences). Inhibitory activity of compounds was determined as percentage of positive control activity containing CETP together with donor and acceptor particles. Serial dilution of compounds was performed in order to determine the IC50 values. Activity of the compounds was subsequently measured in the presence of plasma using the same assay as described above except that the source of CETP was human lipoprotein-deprived serum (LPDS). Inhibitory activity of compounds was determined as percentage of positive control activity containing all the assay components except compound. Serial dilution of compounds was performed in order to determine the IC50 values.

| IC50 [nM] | Compound |
| --- | --- |
| 21 | C[Si](C)(C)c1ccc(CN(CCc2cccc(OC(F)(F)F)c2)C(=O)c2c(F)c(Cl)cc3cc[nH]c23)cc1 [Example 1, 5-Chloro-6-fluoro-1H-indole-7-carboxylic acid [2-(3-trifluoromethoxy-phenyl)-ethyl]-(4-trimethylsilanyl-benzyl)-amide] |
| 16 | C[Si](C)(C)c1ccc(CN(CCc2cccc(C(F)(F)F)c2)C(=O)c2c(F)c(Cl)cc3cc[nH]c23)cc1 [Example 3, 5-Chloro-6-fluoro-1H-indole-7-carboxylic acid [2-(3-trifluoromethyl-phenyl)-ethyl]-(4-trimethylsilanyl-benzyl)-amide] |
| 44 | CC(C)[Si](C)(C)c1ccc(CN(CCc2cccc(C(F)(F)F)c2)C(=O)c2c(F)c(Cl)cc3cc[nH]c23)cc1 [Example 6, 5-Chloro-6-fluoro-1H-indole-7-carboxylic Acid [4-(isopropyl-dimethyl-silanyl)-benzyl]-[2-(3-trifluoromethyl-phenyl)-ethyl]-amide] |

From patent US7572823B2, “Heteroaryl carboxamide compounds” (Hoffmann-La Roche Inc., priority 2006, dated 2009)
